Reference: US7687530B2, “Inhibition of chronic tissue transplant rejection” (Genzyme Corporation, priority 2002, dated 2010)
Entries after “also recorded” stand apart in the source; their conditions may differ.

What was measured:
Assay type in all cases: in vivo
[1] = tested on: heart from C57/BL6 mice transplanted into Balb/c recipient mice (total MHC mismatch); test: Transplant rejection in total MHC mismatch heart transplant mouse model (Example 3); settings: Compound 1 alone 75 mg/kg/day s.c. for fourteen days; p<0.001; untreated controls rejected after ten days
Method: The ability of Compound 1 to inhibit transplant rejection in a mouse model was tested. Specifically, the heart from C57/BL6 mice was transplanted into Balb/c recipient mice (total MHC mismatch) using standard protocol described in Hancock, W. W., et al. “Costimulatory function and expression of CD40 ligand, CD80 and CD86 in vascularized murine cardiac allograft rejection” Proc. Natl. Acad. Sci. USA 93: 13967 (1996). Following surgery, the mice were divided into the following treatment groups: • Group I is a control group that was untreated. • Group II was treated with Compound 1 at a dose of 75 mg/kg/day subcutaneously for fourteen days following surgery. Control mice receiving no treatment reproducibly experienced rejection of their transplanted hearts after only ten days.

[2] = tested on: hearts from donor B6.C-H2^bm12 mice transplanted into C57/BL6 recipient mice (MHC II mismatch); test: Chronic rejection of MHC class II mismatched heart transplants, first mouse model (Example 1)
Method: The ability of Compound 1 to inhibit chronic transplant rejection in a mouse model was tested. Specifically, hearts from donor B6.C-H2^bm12 mice were transplanted into C57/BL6 recipient mice (MHC II mismatch) using standard protocol described in Hancock, W. W., et al. Proc. Natl. Acad. Sci. USA 93: 13967 (1996) and Yuan et al., Transplantation 73:1736, the entire teachings of which are incorporated herein by reference. Following surgery, the mice were divided into the following treatment groups with seven mice each:
Group I was a control group that was untreated.
Group II was treated with Compound 1 at a dose of 75 mg/kg/day subcutaneously for fourteen days following surgery.
At eight weeks following transplant surgery, the mice were sacrificed and evaluated for chronic rejection accelerated atherosclerosis. Briefly, transplanted hearts were fixed in formalin, embedded in paraffin and sectioned coronally. The sections were scanned for arterial blood vessels, which were subjected to a histopathological score. The histopathological scores (range 0-5 indicating severity of chronic rejection accelerated atherosclerosis, with 0 being normal blood vessel and 5 being fully occluded) are shown in FIG. 1. […] It is likely that increased bioavailability resulting from improved compound formulation will result in more complete protection from chronic rejection vasculopathy.

[3] = tested on: fully mismatched cardiac allografts (C57/BL 6 donor with Balb/C recipient); test: Heterotypic allogeneic heart transplant model with CD154 blockade, second mouse model (Example 2)
Method: The ability of compound 1 to inhibit chronic transplant rejection was tested in a mouse heterotypic allogeneic heart transplant model in which acute allograft rejection was prevented with CD154 blockade as previously described (Hancock, W. W. et al. 1996. Proc. Natl. Acad. Sci. USA. 93:13967; and Yuan et al., Transplantation 73:1736). Briefly, this model consists of fully mismatched cardiac allografts (C57/BL 6 donor with Balb/C recipient). […] A third group in which acute rejection is blocked by administering a single 250 μg dose of anti-CD154 (anti-CD40 ligand) monoclonal antibody was established, and acute rejection (as evidenced by cessation of contraction of the transplanted heart) occurred in approximately 50% of recipient animals. […] These include profound athlerosclerotic blockages of heart arteries, cellular inflammation (immune cell infiltration into the heart muscle itself), and fibrotic scarring of the cardiac parenchyma. The hearts were subjected to a histopathological score. The histopathological scores (range 0-5 indicating severity of chronic rejection accelerated atherosclerosis, with 0 being normal blood vessel and 5 being fully occluded) are shown in FIG. 2. Thus the addition of anti-CD154 to this model offers certain similarities to the human transplant clinical condition in that acute rejection is managed (in this case with the anti-CD154 monoclonal antibody) so that chronic rejection pathology can be observed.

N#Cc1cccc(C(C(=O)NCC(c2ccccc2)c2ccccc2)N(CCc2c[nH]cn2)C(=O)c2ccccc2C(=O)c2ccccc2)c1 (centres unmarked) [Compound 1]
delay in the onset of rejection [1]: two to three
animals free of vasculopathy ([2]; 75 mg/kg/day s.c. for fourteen days, eight weeks after transplant, seven mice per group): 4/7
treated animals showing full involvement (vasculopathy) ([2]; 75 mg/kg/day s.c. for fourteen days, eight weeks after transplant, seven mice per group, possibly diminished exposure): three
histological evidence of chronic rejection (histopathological score 0-5, chronic rejection accelerated atherosclerosis) ([2]; 75 mg/kg/day subcutaneously for fourteen days following surgery, evaluated eight weeks after transplant, averaged for all animals, vs untreated control): inhibited; also recorded: significantly (p=0.0002) prevented histological evidence of chronic rejection
chronic rejection of transplanted hearts ([3]; 75 mg/kg/day Compound 1 for two weeks combined with single 250 μg anti-CD154 monoclonal antibody, 120 days post surgery): inhibited
indicators of chronic graft rejection (atherosclerotic blockages, cellular inflammation, fibrotic scarring), histological evaluation ([3]; Compound 1 75 mg/kg daily s.c. for 14 days plus single dose anti-CD154, compared with anti-CD154 alone, more than 100 days post surgery): dramatic inhibition of all indicators of chronic rejection
transplant recipient animals with lack of acute rejection ([3]; Compound 1 75 mg/kg daily s.c. for 14 days plus single dose anti-CD154, for more than 100 days post surgery): 100%
extension in transplant survival ([3]; Compound 1 alone, untreated recipients rejected within 10 days): about 20 days
